Experimental data as given in US20250380697A1, “ISOXAZOLINE DERIVATIVE COMPOUND AND INSECTICIDAL COMPOSITION COMPRISING SAME” (KYUNG NONG CORPORATION, priority 2022, published 2025).

Key:
Type in all cases: in vivo
Phaedon brassicae = experiment: Pesticidal activity against Phaedon brassicae, leaf-dipping method; conditions: counted 24, 48, 72 hours, time not given, read-out: mortality rate, Phaedon brassicae
Description: Cabbage (Daiya) leaves were cut into pieces with a diameter of 5.8 cm, dipped in the pesticide composition where the compound of Synthesis Example 2 was diluted (the solvent=distilled water+acetone 50,000 mg/L+Triton X-100 100 mg/L) for 30 seconds, and sufficiently shade-dried. Then, the shade-dried cabbage leaves were is placed in a petri dish (8.8 cm in diameter) covered with filter paper and repeatedly inoculated 3-5 times with the larvae of Phaedon brassicae, 10 larvae per inoculation. In particular, the Phaedon brassicae larvae used were those which were bred in the Andong National University (Korea) for multiple generations.
After the inoculation, the Phaedon brassicae larvae were stored under the conditions of 16 hours of light and 8 hours of dark, 25±1° C. and 50-60% relative humidity, and the number of live Phaedon brassicae larvae was counted 24, 48, and 72 hours after the inoculation. Thereafter, the larvae mortality rate was calculated in the same manner as in Test Example 1 above.

[1] = test system: Frankliniella occidentalis; experiment: Pesticidal activity against Frankliniella occidentalis, spray method; conditions: 48 h, read-out: mortality rate, Frankliniella occidentalis
Procedure, shortened: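 Ten F. occidentalis adults per dish sprayed with compound at 100 ppm in water/acetone 50,000 mg/L/Triton X-100 100 mg/L, then given a soybean cotyledon. Held at 25±1 °C, 50-60% RH, 16:8 h light:dark; live adults counted 48 h after inoculation to give mortality.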

Spodoptera litura = experiment: Pesticidal activity against Spodoptera litura, leaf-dipping method; conditions: 48 h, read-out: mortality rate, Spodoptera litura

Structure (SMILES) | mortality at 1 ppm (Phaedon brassicae) | mortality at 3 ppm (Phaedon brassicae) | mortality at 10 ppm (Phaedon brassicae) | mortality at 1 ppm [1] | mortality at 5 ppm [1] | mortality at 10 ppm [1] | mortality at 0.1 ppm (Spodoptera litura) | mortality at 1 ppm (Spodoptera litura) | mortality at 10 ppm (Spodoptera litura)
CON=CNC(=O)c1ccc(C2=NOC(c3cc(Cl)cc(Cl)c3)(C(F)(F)F)C2)cc1C (stereo not drawn) [Comparative Example 1, fluxametamide] | 100% | 100% | 100% | 7% | 13% | 50% | 90% | 100% | 100%
Cc1cc(C2=NOC(c3cc(Cl)cc(C(F)(F)F)c3)(C(F)(F)F)C2)ccc1C(=O)NC(=O)C1CC1 (racemic) [Synthesis Example 2] | 100% | 100% | 100% | 100% | 100% | 100% | 100% | 100% | 100%
